The results in this text go back to patent US9643970B2, “Substituted imidazo [1,5-a]pyrazines as PDE9 inhibitors” (H Lundbeck A/S, priority 2012, dated 2017).

What is called pIC50 is the negative decadic logarithm of the IC50, by convention in mol/L.

pIC50: −log10 of the molar value. Read-outs that look alike come from different tables or passages of the source.

In the assay the target is PDE9 (Homo sapiens, UniProt O76083). The assay can be described thus: PDE9 inhibition assay. The assay is classed as biochemical. On the procedure:
Reactions are initiated by addition of the cyclic nucleotide substrate, and reactions are allowed to proceed for one hr at room temperature before being terminated through mixing with 15 uL 8 mg/mL yttrium silicate SPA beads (Amersham). […] IC50 values were calculated by non linear regression using XLfit (IDBS).

The mark [1] stands for this setting: SPA assay, 10 nM 3H-cAMP, 1 hour incubation, read-out: IC50.

Chain of PDE9 (O76083 whole entry): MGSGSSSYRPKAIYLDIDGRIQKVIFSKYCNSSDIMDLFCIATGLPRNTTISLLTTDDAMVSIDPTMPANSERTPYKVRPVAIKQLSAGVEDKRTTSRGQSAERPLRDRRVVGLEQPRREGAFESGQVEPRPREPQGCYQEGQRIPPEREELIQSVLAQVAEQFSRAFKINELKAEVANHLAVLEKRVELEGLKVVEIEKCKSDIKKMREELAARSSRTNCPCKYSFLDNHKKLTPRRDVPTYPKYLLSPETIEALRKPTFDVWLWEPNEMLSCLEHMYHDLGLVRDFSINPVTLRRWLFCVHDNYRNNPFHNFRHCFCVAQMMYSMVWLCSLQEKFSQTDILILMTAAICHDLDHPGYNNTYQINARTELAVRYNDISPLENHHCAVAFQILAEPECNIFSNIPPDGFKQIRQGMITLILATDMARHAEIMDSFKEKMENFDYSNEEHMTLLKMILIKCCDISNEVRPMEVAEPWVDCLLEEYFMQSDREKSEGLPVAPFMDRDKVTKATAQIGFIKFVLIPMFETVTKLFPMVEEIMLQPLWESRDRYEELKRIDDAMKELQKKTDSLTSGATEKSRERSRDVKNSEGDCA

For `COC1CN(C(C)c2cn3c(-c4ccc(F)cc4)ncc3c(=O)[nH]2)C1` (centres unmarked) [Compound 1, 3-(4-fluorophenyl)-6-[1-(3-methoxyazetidin-1-yl)ethyl]-7h-imidazo[1,5-a]pyrazin-8-one], the pIC50 under setting [1] was 7.14.

`CC(NCC1CCCCC1)c1cn2c(-c3ccccc3)ncc2c(=O)[nH]1` (centres unmarked) [Compound 2, 6-[1-(cyclohexylmethylamino)ethyl]-3-phenyl-7h-imidazo[1,5-a]pyrazin-8-one]: the pIC50 under setting [1] was 6.73.

Take `COC1CN(Cc2cn3c(-c4ccccc4)ncc3c(=O)[nH]2)C1` [Compound 3, 6-[(3-methoxyazetidin-1-yl)methyl]-3-phenyl-7h-imidazo[1,5-a]pyrazin-8-one]: the pIC50 under setting [1] is 7.05.

`O=c1[nH]c(CN2CC(Oc3cnccn3)C2)cn2c(-c3ccccc3)ncc12` [Compound 4, 3-phenyl-6-[(3-pyrazin-2-yloxyazetidin-1-yl)methyl]-7h-imidazo[1,5-a]pyrazin-8-one] showed a negative logarithm of the IC50 (pIC50) of 7.49.

`O=c1[nH]c(CN2CC(Oc3ncccn3)C2)cn2c(-c3ccccc3)ncc12` [Compound 5, 3-phenyl-6-[(3-pyrimidin-2-yloxyazetidin-1-yl)methyl]-7h-imidazo[1,5-a]pyrazin-8-one]: the pIC50 is 7.52.

Take `O=c1[nH]c(CN2CC(Oc3cccc(F)n3)C2)cn2c(-c3ccccc3)ncc12` [Compound 6, 6-[[3-[(6-fluoro-2-pyridyl)oxy]azetidin-1-yl]methyl]-3-phenyl-7h-imidazo[1,5-a]pyrazin-8-one]: under setting [1], the pIC50 was 7.51.

As to `CC(c1cn2c(-c3ccccc3)ncc2c(=O)[nH]1)N1CC(Oc2ncccn2)C1` (centres unmarked) [Compound 7, 3-phenyl-6-[1-(3-pyrimidin-2-yloxyazetidin-1-yl)ethyl]-7h-imidazo[1,5-a]pyrazin-8-one], the pIC50 under setting [1] was 7.85.

For `O=c1[nH]c(CN2CC(c3ccccc3)C2)cn2c(-c3ccccc3)ncc12` [Compound 8, 3-phenyl-6-[(3-phenylazetidin-1-yl)methyl]-7h-imidazo[1,5-a]pyrazin-8-one], the pIC50 under setting [1] is 7.11.

Consider `CN(Cc1ccccc1)Cc1cn2c(-c3ccccc3)ncc2c(=O)[nH]1` [Compound 9, 6-[[benzyl(methyl)amino]methyl]-3-phenyl-7h-imidazo[1,5-a]pyrazin-8-one], for which, under setting [1], the pIC50 is 6.81.

In the case of `COC(=O)C1CN(Cc2ccccc2)CC1c1cn2c(-c3ccccc3)ncc2c(=O)[nH]1` (centres unmarked) [Compound 10, methyl 1-benzyl-4-(8-oxo-3-phenyl-7h-imidazo[1,5-a]pyrazin-6-yl)pyrrolidine-3-carboxylate], the pIC50 under setting [1] is 7.37.

In turn, `CCc1ccc(C2CN(Cc3cn4c(-c5ccccc5)ncc4c(=O)[nH]3)C2)cc1` [Compound 11, 6-[[3-(4-ethylphenyl)azetidin-1-yl]methyl]-3-phenyl-7h-imidazo[1,5-a]pyrazin-8-one] had a pIC50 of 6.90.

Regarding `CCC(c1cn2c(-c3ccccc3)ncc2c(=O)[nH]1)N1CC(c2ccc(F)cc2)C1` (centres unmarked) [Compound 12, 6-[1-[3-(4-fluorophenyl)azetidin-1-yl]propyl]-3-phenyl-7h-imidazo[1,5-a]pyrazin-8-one], the pIC50 under setting [1] was 7.72.

`O=c1[nH]c(CN2CC(Oc3cnc4ccccc4n3)C2)cn2c(-c3ccccc3)ncc12` [Compound 13, 3-phenyl-6-[(3-quinoxalin-2-yloxyazetidin-1-yl)methyl]-7h-imidazo[1,5-a]pyrazin-8-one]: the pIC50 under setting [1] was 8.15.

The compound `Cc1cc(C)nc(OC2CN(Cc3cn4c(-c5ccccc5)ncc4c(=O)[nH]3)C2)n1` [Compound 14, 6-[[3-(4,6-dimethylpyrimidin-2-yl)oxyazetidin-1-yl]methyl]-3-phenyl-7h-imidazo[1,5-a]pyrazin-8-one] showed a negative logarithm of the IC50 (pIC50) of 7.30.

On to `CC(c1cn2c(-c3ccccc3)ncc2c(=O)[nH]1)N1CC(Oc2cnccn2)C1` (centres unmarked) [Compound 15, 3-phenyl-6-[1-(3-pyrazin-2-yloxyazetidin-1-yl)ethyl]-7h-imidazo[1,5-a]pyrazin-8-one], for which the pIC50 under setting [1] is 7.40.

As to `O=c1[nH]c(CN2CC(Oc3cccc(F)c3)C2)cn2c(-c3ccccc3)ncc12` [Compound 16, 6-[[3-(3-fluorophenoxy)azetidin-1-yl]methyl]-3-phenyl-7h-imidazo[1,5-a]pyrazin-8-one], under setting [1], the negative logarithm of the IC50 (pIC50) is 7.01.

As to `O=c1[nH]c(CN2CCC(Nc3ccccc3)C2)cn2c(-c3ccccc3)ncc12` (centres unmarked) [Compound 17, 6-[(3-anilinopyrrolidin-1-yl)methyl]-3-phenyl-7h-imidazo[1,5-a]pyrazin-8-one], the pIC50 under setting [1] is 7.55.

The compound `CC(c1cn2c(-c3ccccc3)ncc2c(=O)[nH]1)N1CC(c2ccccc2)C1` (centres unmarked) [Compound 18, 3-phenyl-6-[1-(3-phenylazetidin-1-yl)ethyl]-7h-imidazo[1,5-a]pyrazin-8-one] had a pIC50 of 7.27.

The compound `O=c1[nH]c(CN2CC(c3ccc(F)cc3)C2)cn2c(-c3ccccc3)ncc12` [Compound 19, 6-[[3-(4-fluorophenyl)azetidin-1-yl]methyl]-3-phenyl-7h-imidazo[1,5-a]pyrazin-8-one] gave a pIC50 of 7.16.

`COC1CN(C(C)c2cn3c(-c4ccccc4)ncc3c(=O)[nH]2)C1` (centres unmarked) [Compound 20, 6-[1-(3-methoxyazetidin-1-yl)ethyl]-3-phenyl-7h-imidazo[1,5-a]pyrazin-8-one]: the pIC50 under setting [1] was 7.77.

Turning to `O=c1[nH]c(CN2CC(Oc3ccccc3)C2)cn2c(-c3ccccc3)ncc12` [Compound 21, 6-[(3-phenoxyazetidin-1-yl)methyl]-3-phenyl-7h-imidazo[1,5-a]pyrazin-8-one], the pIC50 under setting [1] was 8.10.

Compound `COC1CN(C(c2ccccc2)c2cn3c(-c4ccccc4)ncc3c(=O)[nH]2)C1` (centres unmarked) [Compound 22, 6-[(3-methoxyazetidin-1-yl)-phenyl-methyl]-3-phenyl-7h-imidazo[1,5-a]pyrazin-8-one] gave a negative logarithm of the IC50 (pIC50) of 7.43.

Regarding `O=c1[nH]c(CN2CC(Oc3ccc(F)cc3)C2)cn2c(-c3ccccc3)ncc12` [Compound 23, 6-[[3-(4-fluorophenoxy)azetidin-1-yl]methyl]-3-phenyl-7h-imidazo[1,5-a]pyrazin-8-one], the pIC50 under setting [1] is 7.80.

For the compound `CC(c1cn2c(-c3ccccc3)ncc2c(=O)[nH]1)N1CC(Oc2cccc(F)c2)C1` (centres unmarked) [Compound 24, 6-[1-[3-(3-fluorophenoxy)azetidin-1-yl]ethyl]-3-phenyl-7h-imidazo[1,5-a]pyrazin-8-one], the pIC50 under setting [1] was 7.60.

`CC(c1cn2c(-c3ccccc3)ncc2c(=O)[nH]1)N1CC(Oc2ccccc2)C1` (centres unmarked) [Compound 25, 6-[1-(3-phenoxyazetidin-1-yl)ethyl]-3-phenyl-7h-imidazo[1,5-a]pyrazin-8-one] had a pIC50 of 7.55.

For `CC(c1cn2c(-c3ccccc3)ncc2c(=O)[nH]1)N1CC(Oc2ccc(F)cc2)C1` (centres unmarked) [Compound 26, 6-[1-[3-(4-fluorophenoxy)azetidin-1-yl]ethyl]-3-phenyl-7h-imidazo[1,5-a]pyrazin-8-one], the pIC50 under setting [1] is 7.72.

In the case of `CC(c1cn2c(-c3ccccc3)ncc2c(=O)[nH]1)N1CC(Oc2cccc(F)n2)C1` (centres unmarked) [Compound 27, 6-[1-[3-[(6-fluoro-2-pyridyl)oxy]azetidin-1-yl]ethyl]-3-phenyl-7h-imidazo[1,5-a]pyrazin-8-one], the pIC50 under setting [1] was 7.42.

As to `CC(c1cn2c(-c3ccccc3)ncc2c(=O)[nH]1)N1CC(c2ccc(F)cc2)C1` (centres unmarked) [Compound 28, 6-[1-[3-(4-fluorophenyl)azetidin-1-yl]ethyl]-3-phenyl-7h-imidazo[1,5-a]pyrazin-8-one], the pIC50 under setting [1] was 7.28.

In turn, `Cc1ccnc(C2CN(C(C)c3cn4c(-c5ccccc5)ncc4c(=O)[nH]3)C2)c1` (centres unmarked) [Compound 29, 6-[1-[3-(4-methyl-2-pyridyl)azetidin-1-yl]ethyl]-3-phenyl-7h-imidazo[1,5-a]pyrazin-8-one] had a pIC50 of 7.70.

For the compound `CCc1ccc(C2CN(C(C)c3cn4c(-c5ccccc5)ncc4c(=O)[nH]3)C2)cc1` (centres unmarked) [Compound 30, 6-[1-[3-(4-ethylphenyl)azetidin-1-yl]ethyl]-3-phenyl-7h-imidazo[1,5-a]pyrazin-8-one], the negative logarithm of the IC50 (pIC50) was 7.80.

As to `CC1CN(Cc2ccccc2)CC1c1cn2c(-c3ccccc3)ncc2c(=O)[nH]1` (centres unmarked) [Compound 31, 6-(1-benzyl-4-methyl-pyrrolidin-3-yl)-3-phenyl-7h-imidazo[1,5-a]pyrazin-8-one], the pIC50 under setting [1] was 7.48.

`CC(c1cn2c(-c3ccccc3)ncc2c(=O)[nH]1)N1CC(Oc2ccccc2F)C1` (centres unmarked) [Compound 32, 6-[1-[3-(2-fluorophenoxy)azetidin-1-yl]ethyl]-3-phenyl-7h-imidazo[1,5-a]pyrazin-8-one] had a pIC50 of 7.14.

Take `O=c1[nH]c(CN2CC(Oc3ccccc3F)C2)cn2c(-c3ccccc3)ncc12` [Compound 33, 6-[[3-(2-fluorophenoxy)azetidin-1-yl]methyl]-3-phenyl-7h-imidazo[1,5-a]pyrazin-8-one]: the pIC50 was 7.74.

On to `COc1ccc(C2CN(C(C)c3cn4c(-c5ccccc5)ncc4c(=O)[nH]3)C2)cc1` (centres unmarked) [Compound 34, 6-[1-[3-(4-methoxyphenyl)azetidin-1-yl]ethyl]-3-phenyl-7h-imidazo[1,5-a]pyrazin-8-one], for which the pIC50 under setting [1] is 7.18.

As for `N#Cc1ccc(C2CN(Cc3cn4c(-c5ccccc5)ncc4c(=O)[nH]3)C2)cc1` [Compound 35, 4-[1-[(8-oxo-3-phenyl-7h-imidazo[1,5-a]pyrazin-6-yl)methyl]azetidin-3-yl]benzonitrile], under setting [1], the pIC50 is 7.31.

Regarding `CC(c1cn2c(-c3ccccc3)ncc2c(=O)[nH]1)N1CC(c2ncccn2)C1` (centres unmarked) [Compound 36, 3-phenyl-6-[1-(3-pyrimidin-2-ylazetidin-1-yl)ethyl]-7h-imidazo[1,5-a]pyrazin-8-one], the pIC50 under setting [1] is 7.10.

`O=c1[nH]c(CN2CC(c3ccccn3)C2)cn2c(-c3ccccc3)ncc12` [Compound 37, 3-phenyl-6-[[3-(2-pyridyl)azetidin-1-yl]methyl]-7h-imidazo[1,5-a]pyrazin-8-one]: the pIC50 under setting [1] was 7.54.

Take `CC(c1cn2c(-c3ccccc3)ncc2c(=O)[nH]1)N1CC(c2ccc(C#N)cc2)C1` (centres unmarked) [Compound 38, 4-[1-[1-(8-oxo-3-phenyl-7h-imidazo[1,5-a]pyrazin-6-yl)ethyl]azetidin-3-yl]benzonitrile]: the negative logarithm of the IC50 (pIC50) under setting [1] is 7.64.
